1 compound from patent publication US7078422B2, “Activator for peroxisome proliferator-activated receptor” (Nippon Chemiphar Co., Ltd., priority 2001, dated 2006) can be followed below.

One test addresses T1, GAL4-hPPARγ LBD (Homo sapiens, UniProt P37231).
T1 construct: Receptor expression plasmid (GAL4-hPPARγ LBD, GAL4-hPPARδ LBD); expressed in transfected cells; host or cells: CV-1 cells
T1 sequence (P37231 238-503 limits assumed): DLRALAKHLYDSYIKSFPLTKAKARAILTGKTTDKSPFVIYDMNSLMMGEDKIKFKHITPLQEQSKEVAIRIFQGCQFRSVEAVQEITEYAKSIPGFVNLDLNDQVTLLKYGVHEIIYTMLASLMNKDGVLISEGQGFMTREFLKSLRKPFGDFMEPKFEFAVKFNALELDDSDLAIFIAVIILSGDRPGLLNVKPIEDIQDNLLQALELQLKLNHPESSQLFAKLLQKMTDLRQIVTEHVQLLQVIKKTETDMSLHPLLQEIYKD
Nature of the test: PPARγ transactivation activity (GAL4 chimeric receptor luciferase reporter in CV-1 cells). Format: cell-based. The note with it: tested compound at 10^−5 M, control 10^−5 M Rosiglitazone set to 100%, DMSO alone 0%, 40 hours. The protocol:
(§1) The luciferase activity is calibrated by the β-GAL activity. A relative ligand activity relating to PPARγ-activating effect is calculated in the same manner (see the below-described Example 3).
(§2) (1) Measurement of PPARγ, δ Transactivation Activity
(§3) Each of PPARγ & δ transactivation activities of the tested compound [compound of Example 1 and known PPARγ agonist (Rosiglitazone) and known PPARδ agonist (L-165041)] was measured in the manner described below.
CV-1 was obtained from Tohoku University Aging Medical Laboratory, Medical Cell Collection Center. All test compounds were dissolved in dimethylsulfoxide (DMSO) to give a test sample of 0.1% concentration.
Receptor expression plasmid (GAL4-hPPARγ LBD, GAL4-hPPARδ LBD), Luciferase expression plasmid (UASx4-TK-LUC), and β-galactosidase expression plasmid (βGAL) similar to Kliewer, S. A., et al., ((1992) Nature, 358:771–774) were employed. […]
The culture medium was removed and the cells were washed with PBS twice. […] (luciferase activity) was measured by means of MLR-100 type Microluminoreader (available from Corona Electrics Co., Ltd.). […] A relative PPAR activity was calculated based on the following: 0% (luciferase activity (control value) of cells treated with DMSO (0.1% concentration, solvent) alone), 100% (luciferase activity of cells treated with a control reagent (PPARγ: 10^−5 M Rosiglitazone, PPARδ: 10^−4 M L-165041)).
Background: In a reporter assay the amount or activity of a reporter protein is the signal.

The target of another test is T2, GAL4-hPPARδ LBD (Homo sapiens, UniProt Q03181).
T2 construct: A chimeric receptor expression plasmid (GAL4-hPPARδ LBD); expressed in transfected cells; host or cells: CV-1 cells
T2 sequence (Q03181 211-439 limits assumed): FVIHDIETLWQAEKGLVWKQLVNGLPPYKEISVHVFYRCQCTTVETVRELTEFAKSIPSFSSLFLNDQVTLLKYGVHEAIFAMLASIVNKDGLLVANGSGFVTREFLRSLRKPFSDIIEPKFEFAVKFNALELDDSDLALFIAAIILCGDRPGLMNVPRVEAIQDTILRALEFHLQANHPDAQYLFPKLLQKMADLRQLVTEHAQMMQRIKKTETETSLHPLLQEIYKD
Nature of the test: PPARδ transactivation activity (GAL4 chimeric receptor luciferase reporter in CV-1 cells). The format is cell-based. The note with it: tested compound at 10^−5 M, control 10^−4 M L-165041 set to 100%, DMSO alone 0%, 40 hours. The method, then:
The PPARδ activating effect of the compound of the invention was determined by the following method:
A chimeric receptor expression plasmid (GAL4-hPPARδ LBD), a reporter plasmid (UASx4-TK-LUC) and β-galactosidase (β-GAL) are transfected into CV-1 cells by utilizing a lipofection reagent DMRIE-C (Life Technologies). Subsequently, it is incubated for 40 hours in the presence of a compound of the invention or a compound for comparison (GW-2433), and then the luciferase activity and β-GAL activity are measured on the soluble cells.
as §1, §2, §3
CV-1 was obtained from Tohoku University Aging Medical Laboratory, Medical Cell Collection Center. All test compounds were dissolved in dimethylsulfoxide (DMSO) to give a test sample of 0.1% concentration. […]
The culture medium was removed and the cells were washed with PBS twice. […] (luciferase activity) was measured by means of MLR-100 type Microluminoreader (available from Corona Electrics Co., Ltd.). […]

For `CC(C)c1oc(-c2ccccc2Cl)nc1CCCC(=O)c1ccc(CC(=O)O)cc1` [Example 1, [4-[4-[2-(2-Chlorophenyl)-5-isopropyloxazol-4-yl]butyryl]phenyl]acetic acid], the “PPAR activity (relative value) for PPARγ” value on GAL4-hPPARγ LBD was found to be 50%. Moreover, the “PPAR activity (relative value) for PPARδ” value at GAL4-hPPARδ LBD is 93±3%.
